For test [1], the system named is human chronic myelogenous leukemic K562 cells. As to the kind of experiment: growth inhibition of K562 cells (MTT viability assay). The format is cell-based. As to conditions: 1 hour drug exposure at 37° C.; 5-6 days; MTT. As to the method: The ability of the compounds of the present invention to inhibit the growth of human chronic myelogenous leukemic K562 cells was determined as follows.
The incubation was terminated by centrifugation (5 minutes, 300 g) and the cells washed once with drug-free medium.
Following the appropriate drug treatment, the cells were transferred to 96-well microtiter plates, 10^4 cells per well, 8 wells per sample. Plates were then kept in the dark at 37° C. in a humidified atmosphere containing 5% CO2. […] Following incubation of the plates of 5-6 days (to allow control cells to increase in the number by 10 fold) 20 μL of a 5 mg/mL solution of MTT in phosphate buffered saline was added to each well and the plates further incubated for 5 h. The plates were then centrifuged for 5 minutes at 300 g and the bulk of the medium pipetted from the cell pellet leaving 10-20 μL per well. 200 μL DMSO was added to each well and the samples agitated to ensure complete mixing. The optical density was then read at a wavelength of 550 nm on a Titertek Multiscan ELISA plate reader and the dose-response curve constructed.

In the next test the test system is poly(dG.dC). As to the kind of experiment: circular dichroism (CD) titration, poly(dG.dC). The format is binding. As to the method:
The DNA binding properties of the present compounds were assessed by circular dichroism (CD) titration experiments. Methods for CD titration can be found, for example, in Zimmer et al. (1986) Prog. Biophys. Molec. Biol 47, 31. The conformation of DNA can be readily determined by CD experiments, and for B-DNA, characteristic positive and negative Cotton effects are observed at 260 and 245 nm, respectively.
The interaction of Compounds 6-10 to a number of DNAs [calf thymus, poly(dA dT) and poly(dG dC)] were analyzed by CD titration studies. All the CD titration experiments were performed using identical procedures, concentrations of DNA, and increments of drug:DNA ratios (or `r`, i.e. moles of drug to moles of DNA base pairs). Therefore, the differences observed in the CD spectra for the titration of each of the compounds to the polydeoxynucleotides may be directly compared to reflect their DNA binding properties.
All experiments were performed with a continuous flow of nitrogen purging the polarimeter. A 1 mm path length jacketed cell was used and all experiments were done at room temperature. Initially, DNA [0.02 μ moles (base pairs), 130 μL] was placed in the cell and the spectrum of the DNA alone was collected. Aliquots of drug were added and the spectra collected. The drug solutions were 1 mM and amounts of the drug added correspond to a drug to base pair ratio of 0.05, 0.10, 0.15, 0.20, 0.25, 0.30, 0.40, 0.50, 0.60, 0.80, 1.00. The scan parameters were set and standard for all experiments. The spectra were collected from 400 nm to 200 nm. The sensitivity was set at 1 mdeg and the scan speed was set at 20 nm per minute. Three scans were accumulated and automatically averaged by the computer. The λmax and ellipticity (mdeg) for each spectrum were collected from the raw scans and the final plots were smoothed by the noise reduction program on the computer. […] The induced CD band is presumably due to the uv absorption π to π^* transition of the drug in the drug:DNA complex. […] Therefore interaction of these drugs with DNA causes only minor conformational changes in the double helix.
Background: Circular dichroism is the unequal absorption of left and right circularly polarised light.

One may read the IC50 as the point on the concentration scale where inhibition reaches its midpoint. A higher IC50 goes with lower potency.

`CN(C)CCNC(=O)c1nc(NC(=O)c2nc(NC(=O)c3nc(NC(=O)CCCc4ccc(N(CCCl)CCCl)cc4)cn3C)cn2C)cn1C` [Compound 10, N-(N',N'-dimethylaminoethyl)-1-methyl-4-{1-methyl-4-[4-(4,4-bis(2-chloroethyl)aminophenyl-1-butanamido)-1-methylimidazole-2-carboxamido]imidazole-2-carboxamido}imidazole-2-carboxamide] gave an IC50 in test [1] of 28 µM. Further, in the test on poly(dG.dC) (315 nm, equimolar titration), the “negative Cotton effect band, ellipticity” value is reported as -1.0 mdeg.
Compound `CN(C)CCNC(=O)c1nc(NC(=O)c2nc(NC(=O)CCCc3ccc(N(CCCl)CCCl)cc3)cn2C)cn1C` [Compound 9, N-(N',N'-dimethylaminoethyl)-1-methyl-4-{4-[4,4-bis(2-chloroethyl)aminophenyl-1-butanamido]-1-methylimidazole-2-carboxamido}imidazole-2-carboxamide] came in with an IC50 in test [1] of 70 µM. In other words, the double-digit micromolar range.
Turning to `CN(C)CCNC(=O)c1nc(NC(=O)c2nc(NC(=O)c3nc(NCc4ccc(N(CCCl)CCCl)cc4)cn3C)cn2C)cn1C` [Compound 8, N-(N',N'-dimethylaminoethyl)-1-methyl-4-{1-methyl-4-[4-(4,4-bis-(2-chloroethyl)aminobenzylamino)-1-methylimidazole-2-carboxamido]imidazole-2-carboxamido}imidazole-2-carboxamide], in test [1], inhibition was half-maximal at 0.85 µM (IC50). The “new positive Cotton effect shoulder, wavelength” value in the test on poly(dG.dC) (poly(dG.dC)) was 288 nm.
`CN(C)CCNC(=O)c1nc(NC(=O)c2nc(NC(=O)c3nc(NC(=O)c4ccc(N(CCCl)CCCl)cc4)cn3C)cn2C)cn1C` [Compound 7, N-(N',N'-dimethylaminoethyl)-1-methyl-4-{1-methyl-4-[4-(4,4-bis-(2-chloroethyl)aminobenzamido)-1-methylimidazole-2-carboxamido]imidazole-2-carboxamido}imidazole-2-carboxamide] yielded an IC50 in test [1] of 0.3 µM. Also, the “negative Cotton effect, ellipticity” value in the test on poly(dG.dC) (333 nm, r'=0.2) is listed as 1 mdeg. For the same compound, the isobestic point with poly(dG.dC) (poly(dG.dC)) was determined as 283 nm.
`CN(C)CCNC(=O)c1nc(NC(=O)c2nc(NC(=O)c3ccc(N(CCCl)CCCl)cc3)cn2C)cn1C` [Compound 6, N-(N',N'-dimethylaminoethyl)-1-methyl-4-{4-[4,4-bis(2-chloroethyl)aminobenzamido]-1-methylimidazole-2-carboxamido}imidazole-2-carboxamide]: the midpoint of inhibition in test [1], the IC50, lay at 12.5 µM. In the test with poly(dG.dC) (330 nm, r'=0.2), the “induced negative CD band, ellipticity” value stood at 0.7 mdeg. Besides, the isobestic point with poly(dG.dC) (poly(dG.dC)) stood at 297 nm.

(Values after patent US5273991A, “Imidazole-containing compositions and methods of use thereof analogs of distamycin” (Research Corporation Technologies, Inc., priority 1992, dated 1993).)
